Assay results from US8354402B2, “Polyarylcarboxamides useful as lipid lowering agents” (Janssen Pharmaceutica N.V., priority 2000, dated 2013).

Each compound was assayed on ApoB secretion, HepG2 cells (assay: Quantification of the secretion of ApoB (HepG2 cells, immunoprecipitation, scintillation counting)). Conditions: Homo sapiens, HepG2, 24 h, 24 hours of incubation.
Format: cell-based
Procedure: C.1. Quantification of the Secretion of ApoB
HepG2 cells were cultured in 24-well plates in Minimal Essential Medium Rega 3 containing 10% fetal calf serum. Rega 3 has the following composition: CaCl2 (264 μg/ml), KCl (400 μg/ml), MgSO4.7H2O (200 μg/ml), NaCl (6800 μg/ml), NaHCO3 (850 μg/ml), NaH2PO4.H2O (158 μg/ml), D-glucose (1000 μg/ml), phenol red (10 μg/ml), L-alanine (8.9 μg/ml), L-arginine HCl (12 μg/ml), L-asparagine.H2O (15 μg/ml), L-aspartic acid (13.3 μg/ml), L-cystine (24 μg/ml), L-glutamic acid (14.7 μg/ml), glycine (7.5 μg/ml), L-histidine.HCl .H2O (42 μg/ml), L-isoleucine (52 μg/ml), L-leucine (52 μg/ml), L-lysine.HCl (72.5 μg/ml), L-methionine (15 μg/ml), L-phenylalanine (32 μg/ml), L-proline (11.5 μg/ml), L-serine (10.5 μg/ml), L-threonine (48 μg/ml), L-tryptophan (10 μg/ml), L-tyrosine (36 μg/ml), L-valine (46 μg/ml), D-Ca pantothenate (1 μg/ml), choline chloride (1 μg/ml), folic acid (1 μg/ml), 1-enositol (2 μg/ml), nicotinamide (1 μg/ml), pyridoxal HCl (1 μg/ml), riboflavin (0.1 μg/ml) and thiamine HCl (1 μg/ml).
At 70% confluency, the medium was changed and the test compound or carrier (dimethylsulfoxide, 0.4% final concentration) was added. After 24 hours of incubation, the medium was transferred to Eppendorf tubes and cleared by centrifugation. A sheep antibody directed against either apo B was added to the supernatant and the mixture was kept at 8° C. for 24 hours. Then, rabbit anti-sheep antibody was added and the immune complex was allowed to precipitate for 24 hours at 8° C. The immunoprecipitate was pelleted by centrifugation for 25 minutes at 1320 g and washed twice with a buffer containing 40 mM 4-morpholinepropanesulfonic acid, 40 mM NaH2PO4, 100 mM NaF, 0.2 mM dithiothreitol, 5 mM ethylenediamine tetraacetic acid, 5 mM ethylenebis (oxyethylenenitrilo) tetraacetic acid, 1% Triton-X-100, 0.5% sodium deoxycholate, 0.1% sodium dodecylsulphate, 0.2 μM leupeptin and 0.2 μM phenylmethylsulphonylfluoride. Radioactivity in the pellet was quantified by liquid scintillation counting.
Resulting IC50 values are enumerated in Table C.1 for a number of compounds No. 1 to No. 123.
`C=CCNC(=O)C(c1ccccc1)N1CCC(c2ccc(NC(=O)c3ccccc3-c3ccc(C(F)(F)F)cc3)cc2)CC1` (stereo not drawn) [Co. No. 71] showed an IC50 of 10.3 nM.
`O=C(Nc1ccc(C2CCN(C(C(=O)NC3CC3)c3ccccc3)CC2)cc1)c1ccccc1-c1ccc(C(F)(F)F)cc1` (stereo not drawn) [Co. No. 72] was tested, and the IC50 was ≤ 30 nM.
`CCCCNC(=O)C(c1ccccc1)N1CCC(c2ccc(NC(=O)c3ccccc3-c3ccc(C(F)(F)F)cc3)cc2)CC1` (stereo not drawn) [Co. No. 73] gave an IC50 of 6.08 nM.
`CC(C)CNC(=O)C(c1ccccc1)N1CCC(c2ccc(NC(=O)c3ccccc3-c3ccc(C(F)(F)F)cc3)cc2)CC1` (stereo not drawn) [Co. No. 74] was tested, and the IC50 was ≤ 30 nM.
In the case of `O=C(Nc1ccc(C2CCN(C(C(=O)NCc3cccnc3)c3ccccc3)CC2)cc1)c1ccccc1-c1ccc(C(F)(F)F)cc1` (stereo not drawn) [Co. No. 76], the IC50 is reported as 51.8 nM.
`O=C(Nc1ccc(C2CCN(C(C(=O)NCc3ccccn3)c3ccccc3)CC2)cc1)c1ccccc1-c1ccc(C(F)(F)F)cc1` (stereo not drawn) [Co. No. 77] was tested, and the IC50 was ≤ 30 nM.
With `O=C(Nc1ccc(C2CCN(C(C(=O)NCC(F)(F)F)c3ccccc3)CC2)cc1)c1ccccc1-c1ccc(C(F)(F)F)cc1` (stereo not drawn) [Co. No. 78] the IC50 was 32.5 nM.
Work on `O=C(Nc1ccc(C2CCN(C(C(=O)NCc3ccccc3)c3ccccc3)CC2)cc1)c1ccccc1-c1ccc(C(F)(F)F)cc1` (stereo not drawn) [Co. No. 79] yielded an IC50 of 50 nM.
Compound `O=C(Nc1ccc(C2CCN(C(C(=O)Nc3ccccc3)c3ccccc3)CC2)cc1)c1ccccc1-c1ccc(C(F)(F)F)cc1` (stereo not drawn) [Co. No. 80] has an IC50 of 356 nM.
`CCCNC(=O)C(c1ccccc1)C1CCN(c2ccc(NC(=O)c3ccccc3-c3cccc(Cl)c3)cc2)CC1` (stereo not drawn) [Co. No. 82] showed an IC50 of 97.5 nM.
Compound `CCCNC(=O)C(c1ccccc1)C1CCN(c2ccc(NC(=O)c3ccccc3-c3ccc(Cl)c(Cl)c3)cc2)CC1` (stereo not drawn) [Co. No. 83] has an IC50 of 43.3 nM.
For `CCCNC(=O)C(c1ccccc1)C1CCN(c2ccc(NC(=O)c3ccccc3-c3ccc(F)cc3F)cc2)CC1` (stereo not drawn) [Co. No. 84, 2′,4′-difluoro-N-[4-[4-[2-oxo-1-phenyl-2-(propylamino)ethyl]-1-piperidinyl]phenyl]-[1,1′-biphenyl]-2-carboxamide], the IC50 was 79.4 nM.
With `CCNC(=O)C(c1ccccc1)C1CCN(c2ccc(NC(=O)c3ccccc3-c3ccccc3C)cc2)CC1` (stereo not drawn) [Co. No. 85, N-[4-[4-[2-(ethylamino)-2-oxo-1-phenylethyl]-1-piperidinyl]phenyl]-2′-methyl-[1,1′-biphenyl]-2-carboxamide] the IC50 was 129 nM.
With `CCNC(=O)C(c1ccccc1)C1CCN(c2ccc(NC(=O)c3ccccc3-c3cccc(Cl)c3)cc2)CC1` (stereo not drawn) [Co. No. 86] the IC50 was 84.1 nM.
With `CCNC(=O)C(c1ccccc1)C1CCN(c2ccc(NC(=O)c3ccccc3-c3ccc(Cl)c(Cl)c3)cc2)CC1` (stereo not drawn) [Co. No. 88] the IC50 was ≤ 30 nM.
`CCNC(=O)C(c1ccccc1)C1CCN(c2ccc(NC(=O)c3ccccc3-c3cccc(N)c3)cc2)CC1` (stereo not drawn) [Co. No. 89] gave an IC50 of 363 nM.
For `CCNC(=O)C(c1ccccc1)C1CCN(c2ccc(NC(=O)c3ccccc3-c3cccc(C)c3)cc2)CC1` (stereo not drawn) [Co. No. 90], the IC50 was 14.1 nM.
Work on `CCNC(=O)C(c1ccccc1)C1CCN(c2ccc(NC(=O)c3ccccc3-c3ccc(Cl)cc3)cc2)CC1` (stereo not drawn) [Co. No. 91] yielded an IC50 of 8.69 nM.
For `CCNC(=O)C(c1ccccc1)C1CCN(c2ccc(NC(=O)c3ccccc3-c3ccc(F)cc3)cc2)CC1` (stereo not drawn) [Co. No. 92], the IC50 was 63.2 nM.
For `CCNC(=O)C(c1ccccc1)C1CCN(c2ccc(NC(=O)c3ccccc3-c3ccc(OC)cc3)cc2)CC1` (stereo not drawn) [Co. No. 93], the IC50 was 72.3 nM.
`CCNC(=O)C(c1ccccc1)C1CCN(c2ccc(NC(=O)c3ccccc3-c3ccc(C)cc3)cc2)CC1` (stereo not drawn) [Co. No. 94] was tested, and the IC50 was 44.1 nM.
`CCNC(=O)C(c1ccccc1)C1CCN(c2ccc(NC(=O)c3ccccc3-c3ccc4ccccc4c3)cc2)CC1` (stereo not drawn) [Co. No. 95] was tested, and the IC50 was ≤ 30 nM.
For `CCNC(=O)C(c1ccccc1)C1CCN(c2ccc(NC(=O)c3ccccc3-c3cccc(C(F)(F)F)c3)cc2)CC1` (stereo not drawn) [Co. No. 96], the IC50 was 32.1 nM.
Work on `CCCNC(=O)C(c1ccccc1)C1CCN(c2ccc(NC(=O)c3ccccc3-c3cc(Cl)cc(Cl)c3)cc2)CC1` (stereo not drawn) [Co. No. 97, 3′,5′-dichloro-N-[4-[4-[2-oxo-1-phenyl-2-(propylamino)ethyl]-1-piperidinyl]phenyl]-[1,1′-biphenyl]-2-carboxamide] yielded an IC50 of 234 nM.
In the case of `Nc1cccc(-c2ccccc2C(=O)Nc2ccc(N3CCC(C(C(=O)NCc4ccccc4)c4ccccc4)CC3)cc2)c1` (stereo not drawn) [Co. No. 98], the IC50 is reported as 57.9 nM.
With `O=C(Nc1ccc(N2CCC(C(C(=O)NCc3ccccc3)c3ccccc3)CC2)cc1)c1ccccc1-c1ccc(Cl)cc1` (stereo not drawn) [Co. No. 100] the IC50 was 11.6 nM.
Work on `COc1ccccc1-c1ccccc1C(=O)Nc1ccc(N2CCC(C(C(=O)NCc3ccccc3)c3ccccc3)CC2)cc1` (stereo not drawn) [Co. No. 101] yielded an IC50 of 207 nM.
Compound `O=C(Nc1ccc(N2CCC(C(C(=O)NCc3ccccc3)c3ccccc3)CC2)cc1)c1ccccc1-c1ccc(F)cc1` (stereo not drawn) [Co. No. 102] has an IC50 of 18.5 nM.
Compound `O=C(Nc1ccc(N2CCC(C(C(=O)NCc3ccccc3)c3ccccc3)CC2)cc1)c1ccccc1-c1ccccc1Cl` (stereo not drawn) [Co. No. 103] has an IC50 of 73.6 nM.
With `Cc1ccc(-c2ccccc2C(=O)Nc2ccc(N3CCC(C(C(=O)NCc4ccccc4)c4ccccc4)CC3)cc2)cc1` (stereo not drawn) [Co. No. 104] the IC50 was 7.94 nM.
`O=C(Nc1ccc(N2CCC(C(C(=O)NCc3ccccc3)c3ccccc3)CC2)cc1)c1ccccc1-c1cccc(C(F)(F)F)c1` (stereo not drawn) [Co. No. 105] showed an IC50 of 90.6 nM.
In the case of `O=C(Nc1ccc(N2CCC(C(C(=O)Nc3ccccc3)c3ccccc3)CC2)cc1)c1ccccc1-c1cc(Cl)cc(Cl)c1` (stereo not drawn) [Co. No. 106], the IC50 is reported as 251 nM.
With `Cc1ccccc1-c1ccccc1C(=O)Nc1ccc(N2CCC(C(C(=O)Nc3ccccc3)c3ccccc3)CC2)cc1` (stereo not drawn) [Co. No. 107] the IC50 was 292 nM.
For `O=C(Nc1ccc(N2CCC(C(C(=O)Nc3ccccc3)c3ccccc3)CC2)cc1)c1ccccc1-c1cccc(Cl)c1` (stereo not drawn) [Co. No. 108], the IC50 was 188 nM.
Compound `O=C(Nc1ccc(N2CCC(C(C(=O)Nc3ccccc3)c3ccccc3)CC2)cc1)c1ccccc1-c1ccccc1C(F)(F)F` (stereo not drawn) [Co. No. 109] has an IC50 of 1470 nM.
Compound `O=C(Nc1ccc(N2CCC(C(C(=O)Nc3ccccc3)c3ccccc3)CC2)cc1)c1ccccc1-c1ccc(Cl)c(Cl)c1` (stereo not drawn) [Co. No. 110] has an IC50 of 158 nM.
For `Nc1cccc(-c2ccccc2C(=O)Nc2ccc(N3CCC(C(C(=O)Nc4ccccc4)c4ccccc4)CC3)cc2)c1` (stereo not drawn) [Co. No. 111], the IC50 was 221 nM.
With `Cc1cccc(-c2ccccc2C(=O)Nc2ccc(N3CCC(C(C(=O)Nc4ccccc4)c4ccccc4)CC3)cc2)c1` (stereo not drawn) [Co. No. 112] the IC50 was 434 nM.
Compound `O=C(Nc1ccc(N2CCC(C(C(=O)Nc3ccccc3)c3ccccc3)CC2)cc1)c1ccccc1-c1ccc(Cl)cc1` (stereo not drawn) [Co. No. 113] has an IC50 of 115 nM.
`O=C(Nc1ccc(N2CCC(C(C(=O)Nc3ccccc3)c3ccccc3)CC2)cc1)c1ccccc1-c1ccc(F)cc1` (stereo not drawn) [Co. No. 114] was tested, and the IC50 was 836 nM.
In the case of `O=C(Nc1ccc(N2CCC(C(C(=O)Nc3ccccc3)c3ccccc3)CC2)cc1)c1ccccc1-c1ccccc1Cl` (stereo not drawn) [Co. No. 115], the IC50 is reported as 1710 nM.
With `COc1ccc(-c2ccccc2C(=O)Nc2ccc(N3CCC(C(C(=O)Nc4ccccc4)c4ccccc4)CC3)cc2)cc1` (stereo not drawn) [Co. No. 116] the IC50 was 385 nM.
With `Cc1ccc(-c2ccccc2C(=O)Nc2ccc(N3CCC(C(C(=O)Nc4ccccc4)c4ccccc4)CC3)cc2)cc1` (stereo not drawn) [Co. No. 117] the IC50 was 121 nM.
In the case of `O=C(Nc1ccc(N2CCC(C(C(=O)Nc3ccccc3)c3ccccc3)CC2)cc1)c1ccccc1-c1cccc(C(F)(F)F)c1` (stereo not drawn) [Co. No. 118], the IC50 is reported as 127 nM.
`COC(=O)C(c1ccccc1)N1CCCN(c2ccc(NC(=O)c3ccccc3-c3ccc(C(F)(F)F)cc3)cc2)CC1` (stereo not drawn) [Co. No. 119] was tested, and the IC50 was 175 nM.
